Reference: US11247972B2, “Compositions and methods for treating toxoplasmosis, cryptosporidiosis, and other apicomplexan protozoan related diseases” (University of Washington through its Center for …, priority 2010, dated 2022)

Legend:
PfCDPK1 = PfCDPK1 (Plasmodium falciparum (isolate 3D7), UniProt P62344); assay: biochemical; details: read-out: PfCDPK1 (% inhibition @ 3 uM)
PfCDPK4 = PfCDPK4 (Plasmodium falciparum (isolate 3D7), UniProt Q8IBS5); assay: biochemical; details: read-out: PfCDPK4 (% inhibition @ 3 uM)

Row | Compound | inhibition at 3 µM (PfCDPK1) [%] | inhibition at 3 µM (PfCDPK4) [%]
1 | Cn1ccc2cc(-c3nn(CC4CCNCC4)c4ncnc(N)c34)ccc21 [Compound 57, 3-(1-methyl-1H-indol-5-yl)-1-(piperidin-4-ylmethyl)-1H-pyrazolo[3,4-d]pyrimidin-4-amine] | 85 | 82
2 | CC(C)(C)n1nc(-c2ccc(NC(=O)CCl)cc2)c2c(N)ncnc21 [Compound 58, N-(4-(4-amino-1-tert-butyl-1H-pyrazolo[3,4-d]pyrimidin-3-yl)phenyl)-2-chloroacetamide] | 97 | 50
3 | CC(C)C(=O)Nc1ccc(-c2nn(C(C)(C)C)c3ncnc(N)c23)cc1 [Compound 59, N-(4-(4-amino-1-tert-butyl-1H-pyrazolo[3,4-d]pyrimidin-3-yl)phenyl)isobutyramide] | 98 | 79
4 | CC(C)(C)C(=O)Nc1ccc(-c2nn(C(C)(C)C)c3ncnc(N)c23)cc1 [Compound 60, N-(4-(4-amino-1-tert-butyl-1H-pyrazolo[3,4-d]pyrimidin-3-yl)phenyl)pivalamide] | 98 | 85
5 | CCCC(=O)Nc1ccc(-c2nn(C(C)(C)C)c3ncnc(N)c23)cc1 [Compound 61, N-(4-(4-amino-1-tert-butyl-1H-pyrazolo[3,4-d]pyrimidin-3-yl)phenyl)butyramide] | 101 | 80
6 | CC(C)CC(=O)Nc1ccc(-c2nn(C(C)(C)C)c3ncnc(N)c23)cc1 [Compound 62, N-(4-(4-amino-1-tert-butyl-1H-pyrazolo[3,4-d]pyrimidin-3-yl)phenyl)-3-methylbutanamide] | 102 | 95
7 | CC(C)(C)n1nc(-c2ccc(NC(=O)C3CCCC3)cc2)c2c(N)ncnc21 [Compound 63, N-(4-(4-amino-1-tert-butyl-1H-pyrazolo[3,4-d]pyrimidin-3-yl)phenyl)cyclopentanecarboxamide] | 103 | 96
8 | CC(C)(C)n1nc(-c2ccc(NC(=O)C3CCCCC3)cc2)c2c(N)ncnc21 [Compound 64, N-(4-(4-amino-1-tert-butyl-1H-pyrazolo[3,4-d]pyrimidin-3-yl)phenyl)cyclohexanecarboxamide] | 101 | 66
9 | CC(C)(C)n1nc(-c2ccc(NC(=O)c3ccccc3)cc2)c2c(N)ncnc21 [Compound 65, N-(4-(4-amino-1-tert-butyl-1H-pyrazolo[3,4-d]pyrimidin-3-yl)phenyl)benzamide] | 101 | 53
10 | CC(C)(C)n1nc(-c2ccc(NC(=O)Cc3ccccc3)cc2)c2c(N)ncnc21 [Compound 66, N-(4-(4-amino-1-tert-butyl-1H-pyrazolo[3,4-d]pyrimidin-3-yl)phenyl)-2-phenylacetamide] | 100 | 77
11 | CCC(=O)Nc1ccc(-c2nn(C(C)(C)C)c3ncnc(N)c23)cc1 [Compound 67, N-(4-(4-amino-1-tert-butyl-1H-pyrazolo[3,4-d]pyrimidin-3-yl)phenyl)propionamide] | 96 | 49
12 | CCOc1ccc2cc(-c3nc(C(C)(C)C)n4ccnc(N)c34)ccc2c1 [Compound 69, 3-tert-butyl-1-(6-ethoxynaphthalen-2-yl)imidazo[1,5-a]pyrazin-8-amine] | 101 | 97
13 | Cn1ccc2cc(-c3nc(C(C)(C)C)n4ccnc(N)c34)ccc21 [Compound 70, 3-tert-butyl-1-(1-methyl-1H-indol-5-yl)imidazo[1,5-a]pyrazin-8-amine] | 100 | 96
14 | COc1ccc2cc(-c3nc(C(C)(C)C)n4ccnc(N)c34)ccc2c1 [Compound 71, 3-tert-butyl-1-(6-methoxynaphthalen-2-yl)imidazo[1,5-a]pyrazin-8-amine] | 101 | 98
15 | CC(C)(C)c1nc(-c2cnc3ccccc3c2)c2c(N)nccn12 [Compound 72, 3-tert-butyl-1-(quinolin-3-yl)imidazo[1,5-a]pyrazin-8-amine] | 94 | 91
